Assay results: patent US9642835B2, “Modulators of GTPase and use in relevant treatment” (STC.UNM, priority 2010, dated 2017)

Assays:
wild-type Cdc42 = target: T1, wild-type Cdc42 (Homo sapiens, UniProt P60953); assay: Equilibrium binding assay of BODIPY-FL-GTP; settings: 1.5 nM substrate, 1 mM MgCl2; read-out: IC50, inhibition of fluorescent GTP binding to Cdc42 wt
T1 construct: purchased Cytoskeleton
Protocol: Changes in GTP binding affinity (Kd) and Bmax in the presence of a given compound were measured in multiplex (Cdc42, Cdc42Q61L, Rab2, Rab7, H-Ras and H-RasG12V) and single-plex formats (Rac1, Rac1Q61L and GST-GFP). GTPases and the GST-GFP control were individually bound to glutathione beads overnight at 4° C., washed with HPSE buffer, then resuspended together or assayed individually in the same buffer containing DTT and BSA. Bound GTPases were analyzed by mixing 5 μl protein-bound beads with 2.5-100 nM BODIPY-GTP in a total volume of 10 μl and incubating with rotation at 4° C. for 90 min. DMSO controls and samples treated with 10 μM of each test compound were run in parallel. Bound fluorescent nucleotide was measured using a Cyan ADP flow cytometer. Data were converted to ASCII format using IDLeQuery, exported and analyzed using Prism (GraphPad Software, Inc., San Diego, Calif.) non-linear, one-site binding.
Wild-type GST-Cdc42 (4 μM) was bound to GSH-beads overnight at 4° C. Cdc42 on GSH-beads was depleted of nucleotide by incubating with 10 mM EDTA containing buffer for 20 min at 30° C., washing twice with NP-HPS buffer, then re-suspended in the same buffer containing 1 mM EDTA/or 1 mM MgCl2, 1 mM DTT and 0.1% BSA. […] Samples incubated at 4° C. for 45 min and binding of fluorescent nucleotide to enzyme measured using an Accuri flow cytometer. […]

[1] = test system: Cdc42, Rab2, Rab7, activated Rac1Q61L, Rac1, and H-Ras; assay: Multiplexed primary screen, fluorescent GTP binding; settings: 10 μM compound
Protocol: Multiplex screening was performed by measuring GTP-binding activities of six GTPases (Cdc42, Rab2, Rab7, activated Rac1Q61L, Rac1, and H-Ras) simultaneously using special glutathione (GSH) bead sets having varied fluorescence intensities at a fixed wavelength^38. Individual GST-GTPase chimeras were tested against approximately 200,000 small molecules from the Molecular Libraries Small Molecule Repository (MLSMR). Results of fluorescent GTP-binding from the entire primary screen are summarized in the open access Pubchem database as required for projects conducted under the Roadmap Initiative (AID 757-761, 764). […] In total 1877 compounds/194,635 were identified as activators or inhibitors in the primary screen. On the order of 100-500 compounds were found active per GTPase target, enabling an unprecedented, comprehensive evaluation of small molecules active against various Ras-related GTPase family members. Here we report one compound active specifically on Cdc42 and structure activity relationships determined through chemical synthesis.
Multiplex analysis of small GTPases, were performed as we have described previously {Surviladze, 2009}. […] Flow cytometric light scatter and fluorescence emission at 530+/−20 nm (FL1) and 665+/−10 nm (FL8) were collected on a Cyan ADP flow cytometer (Beckman Coulter, Fullerton, Calif.). The resulting time-dependent data (one file per plate) were analyzed using IDLQuery software to determine the compound activity in each well. […] Gating based on FL8 emission distinguishes the beads coated with different proteins, and the median fluorescence per bead population was calculated. […]
For detection of GTP binding to small G-proteins we used bead-based multiplex flow cytometry assay {Surviladze, 2009}. […] Six individual GST-GTPases representative of Rho, Ras and Rab branches of the Ras-related GTPase family (Cdc42 wt, Rac1 wt, Rac1Q61L, Rab2 wt, Rab7 wt, and H-Ras wt) were first bound to GSH-beads of a particular fluorescence intensity. […]

T1 sequence (P60953 whole entry): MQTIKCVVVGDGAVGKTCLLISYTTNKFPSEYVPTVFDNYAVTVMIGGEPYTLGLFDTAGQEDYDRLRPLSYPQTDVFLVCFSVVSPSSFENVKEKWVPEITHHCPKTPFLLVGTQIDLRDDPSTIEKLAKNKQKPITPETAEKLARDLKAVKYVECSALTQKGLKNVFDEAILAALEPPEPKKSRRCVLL

`COc1ccc(C2CC(c3ccccc3)=NN2c2ccc(S(N)(=O)=O)cc2)cc1` (centres unmarked) [MLS000693334, 4-[3-(4-methoxyphenyl)-5-phenyl-3,4-dihydropyrazol-2-yl]benzenesulfonamide] was tested, and the IC50 (wild-type Cdc42) was 200 nM and the “Outcome of primary screening” value [1] was “specific inhibitors”.
